Ten compounds from US20250154165A1, “MULTIANTENNARY GLYCOLIPID MIMETICS” (CONSEJO SUPERIOR DE INVESTIGACIONES CIENTÍFICAS (CSIC), priority 2021, published 2025) can be followed below.

The test system of data set [1] is Splenocytes treated with αGalCer. Briefly: Suppression of αGalCer-induced inflammation (splenocytes in vitro). The class given is cell-based, mouse. The note with it: splenocytes treated concurrently with compound and αGalCer (FIG. 5). As for the experimental part:
FIG. 5. […] Splenocytes were treated concurrently with the compounds of the invention and αGalCer to assess the suppressive function of compounds on αGalCer-induced inflammation, with several compounds showing prominent suppressive function.
(§1) The whole spleen was surgically removed from a mouse and mechanically dissociated into a single cell suspension of splenocytes, which were then cultured in the complete RPMI 1640 medium (cRPMI). Human peripheral blood mononuclear cells (PBMCs) from healthy volunteers were collected from whole blood through gradient-centrifugation with Histopaque-1077 (Sigma-Aldrich).
Splenocytes were treated concurrently with the compounds of the invention and αGalCer to assess their ability to suppress αGalCer-induced inflammation.

For data set [2], the system named is OVA-induced AHR mouse model. The experiment in a line: Suppression of OVA-induced airway hyperreactivity (AHR) in vivo. As to conditions: OVA-induced AHR mouse model (FIG. 7). As for the experimental part:
FIG. 7. […] The capability of selected compounds 8, 12, 18, and 27 in suppressing Th2 inflammation in vivo was assessed using the OAV-induced AHR mouse model.
(§2) For ovalbumin (OVA) challenge, mice were sensitized intraperitoneally (i.p.) with 50 μg of OVA with 2% alhydrogel adjuvant (InvivoGen). Mice were challenged three times with 50 μg of OVA on day 7 post-sensitization, either daily or every other day. Mice were sacrificed the day after the last OVA challenge. The scheme of the OT-1 adoptive transfer mouse model for examining the proliferation of CD8^+ T cells in adjuvanting OVA challenge is described in FIG. 13.
Mice were anesthetized with 100 mg per kg body weight pentobarbital (Sigma-Aldrich), tracheotomised and mechanically ventilated via the FinePointe RC system (Buxco Research Systems, Wilmington, NC). Lung function was assessed by measuring lung resistance and dynamic compliance in response to increasing doses of aerosolized methacholine (1.25-40 mg/mL, Sigma-Aldrich).
(§3) Using the Th2 OVA-induced AHR mouse model, we assessed the capability of selected compounds 8, 12, 18, and 27 in suppressing Th2 inflammation.

Data set [3] relates to Splenocytes treated with LPS. The experiment in a line: Suppression of LPS-induced inflammation (splenocytes in vitro). As to conditions: splenocytes treated concurrently with compound and LPS (FIG. 1). In kind it is cell-based, mouse. As for the experimental part:
FIG. 1. […] Splenocytes were treated concurrently with the compounds of the invention and LPS to assess the suppressive function of compounds on LPS-induced inflammation, with several compounds showing prominent suppressive function.
as §1
Splenocytes were treated concurrently with the compounds of the invention and LPS to assess the suppressive function of compounds on LPS-induced inflammation.

The test system of data set [4] is B6 mice. The experiment in a line: Adjuvancy function in vivo (serum IFNγ and IL-4 after injection). As to the method:
FIG. 11. […] The adjuvancy capability of the selected compounds 8, 12, 18, 27, and 29 in vivo was assessed by measuring the serum level of IFNγ and IL-4 induced after injecting them into B6 mice.
Besides assessing the ability of the new compounds to suppress inflammation, we also looked into their function to act as adjuvants, i.e. their ability to promote desirable immunological trends in the development of vaccines. We measured the in vivo adjuvancy capability of selected compounds 8, 12, 18, 27, and 29 in inducing IFNγ and IL-4 in B6 mice (FIG. 11).

Data set [5] deals with Splenocytes. The experiment in a line: Immune-stimulating function of compounds alone (splenocytes in vitro). The class given is cell-based, mouse. The note with it: for Th1/Th2 bias: concluded from IFNγ and IL-4 secretion of splenocytes (FIG. 6); for IFNγ secretion / IL-4 secretion: splenocytes treated with compound alone (FIG. 6). As to the method: FIG. 6. […] Splenocytes were treated with the compounds of the invention alone to assess the immune-stimulating function of the compounds. Compounds 12, 18, 22, 27, and 29 induced significant IFNγ secretion, and compound 8 induced significant IL-4 secretion.
as §1
Splenocytes were treated with the compounds of the invention alone to assess the immune-stimulating function of the compounds by measuring their ability to promote the secretions of IFN-γ and IL-4.

The subject of data set [6] is OVA-induced AHR mouse model. Briefly: Suppression of OVA-induced airway inflammation in vivo (IL-13 and IL-4 in BALF and lungs). The note with it: OVA-induced AHR experiment; for IL-4 protein level in lungs / IL-13 protein level in lungs: lung protein (FIG. 9); for IL-4 level in BALF / IL-13 level in BALF: bronchoalveolar lavage fluid (FIG. 8). As to the method: FIG. 8. […] The bronchoalveolar lavage fluid (BALF) from mice in the OAV-induced AHR experiment was examined forth IL-13 and IL-4 levels.
FIG. 9. […] The lungs from mice in the OAV-induced AHR experiment was examined for their IL-13 and IL-4 protein level.
FIG. 10. […] The lungs from mice in the OAV-induced AHR experiment was examined for their IL-13 and IL-4 mRNA levels.
as §2
Upon exposure of the trachea, the lungs were lavaged twice with 1 mL of PBS supplemented with 2% fetal calf serum (FCS). BALF was pooled and bronchoalveolar (BAL) cells were pelleted by centrifugation and fixed onto cytospin slides. The slides were stained with Diff-Quik solution (Polysciences Inc) and BAL differential cell count was performed.
as §3

Data set [7] deals with glycosidases of human fibroblast lysates. Briefly: Stability of the glycosidic linkage to glycosidases upon incubation with human fibroblast lysates. The note with it: 4 h, 37° C., compound solution 200 μM, 0.1 M citrate buffer pH 4.5. The class given is in vitro ADME. As to the method:
The stability of the glyosidic linkage in compounds 2, 4, 6, 8, 10, 12, 14, 16, 18, 20, 22, 23, 25, 27 and 29, selected as representative examples, upon incubation with human fibroblast lysates for 4 h was checked. For such purpose, cells were scraped into ice-cold H2O (10^6 cells mL^−1) and lysed by sonication. Insoluble materials were removed by centrifugation at 15,000 rpm for 5 min and protein concentrations were determined with Protein Assay Rapid Kit (WAKO, Tokyo, Japan). 10 μL of the lysates in 0.1% Triton X-100 in distilled water were incubated at 37° C. with 20 μL of the compound solution (200 μM) in 0.1 M citrate buffer, pH 4.5. In control experiments, the activity of several lysosomas glycosidases was confirmed using fluorescent substrates. The substrates were 4-methylumbelliferone (4-MU)-conjugated β-D-glucopyranoside (for GCase), α-D-glucopyranoside (for α-glucosidase), α-D-galactopyranoside (for α-Galase) and β-D-galactopyranoside (for β-galactosidase). The liberated 4-methylumbelliferone was measured in the black-well plate with a Perkin Elmer Luminescence Spectrometer (excitation wavelength: 340 nm; emission: 460 nm).

The subject of data set [8] is bone marrow-derived macrophages (BMDM) treated with LPS. Briefly: Suppression of LPS-induced inflammation in bone marrow-derived macrophages (BMDM in vitro). In kind it is cell-based. The note with it: LPS-induced, BMDM (FIG. 2). An excerpt:
Since macrophage is the major responder to LPS-induced inflammation, we assessed the capability of selected compounds to suppress LPS-induced inflammation in bone marrow-derived macrophages (BMDM).

Setting [9] is: 2 hours after injection (FIG. 11).
The mark [10] stands for this setting: 18 hours after injection (FIG. 11).

For the compound `CCCCCCCCCCCCCCCCCCCCCCCCCC(=O)N[C@@H](CO[C@@H]1C(O)[C@@H](O)[C@H](O)C2COC(=O)N21)[C@H](O)[C@H](O)CCCCCCCCCCCCCC` (some centres unmarked) [Compound 2], the “suppressive function on αGalCer-induced inflammation” value in data set [1] is listed as “prominent inflammation-suppressing function”.

As for `CCCCCCCCCCCCCCCCCCCCCCCCCC(=O)N[C@@H](CO[C@@H]1C(O)[C@@H](O)[C@@H](O)C2COC(=O)N21)[C@H](O)[C@H](O)CCCCCCCCCCCCCC` (some centres unmarked) [Compound 6], the “suppressive function on αGalCer-induced inflammation” value in data set [1] was “prominent inflammation-suppressing function”.

As to `CCCCCCCCCCCCCC[C@@H](O)[C@@H](O)[C@H](CO[C@@H]1C(O)[C@@H](O)[C@@H](O)C2COC(=O)N21)n1cc(CCCCCCCC)nn1` (some centres unmarked) [Compound 8], the “suppression of airway hyperreactivity (AHR)” value in data set [2] is “can suppress AHR onset”. Besides, the “suppressive function on LPS-induced inflammation” value in data set [3] is recorded as “prominent inflammation-suppressing function”. For the same compound, in data set [4] (setting [9]), the “serum level of IFNγ induced” value is “significant capability in inducing” and the “serum level of IL-4 induced” value is reported as “significant capability in inducing”. Also, in data set [4] (setting [10]), the “serum level of IFNγ induced” value is on record as “significant detectable level” and the “serum level of IL-4 induced” value is “significant detectable level”. In addition, in data set [5], the Th1/Th2 bias result is “Th2-biased”, the IFNγ secretion result is given as “not IFNγ” and the IL-4 secretion result is “proficient at inducing IL-4 secretion”. Further, in data set [6], the “IL-4 protein level in lungs” value is “only showed significant suppression on IL-13” and the “IL-13 protein level in lungs” value is “significant suppression”.

For the compound `CCCCCCCCCCCCCCC(O)C(O)C(COC1C(O)C(O)C(O)C2COC(=O)N21)n1cc(CCCCCCCCCCCC)nn1` (centres unmarked) [Compound 10], the “suppressive function on LPS-induced inflammation” value in data set [3] is reported as “prominent inflammation-suppressing function”. Besides, in data set [7], the “hydrolysis of the glycolipid mimetic (free polysubstituted 2-oxa-3-oxoindolizidine detected by gas chromatography)” value is “No traces of the free polysubstituted 2-oxa-3-oxoindolizidine”.

As to `CCCCCCCCCCCCNC(=O)[C@H](CO[C@@H]1C(O)[C@@H](O)[C@H](O)C2COC(=O)N21)NC(=S)NCCCCCCCC` (some centres unmarked) [Compound 14], the “suppressive function on LPS-induced inflammation” value in data set [3] is reported as “prominent inflammation-suppressing function”.

Regarding `CCCCCCCCCCCCNC(=O)[C@H](CS[C@@H]1C(O)[C@@H](O)[C@H](O)C2COC(=O)N21)NC(=O)CCCCCCCCCCC` (some centres unmarked) [Compound 18], the “suppression of airway hyperreactivity (AHR)” value in data set [2] is given as “can suppress AHR onset”. Further, in data set [3], the “suppressive function on LPS-induced inflammation” value was “prominent inflammation-suppressing function”. For the same compound, in data set [4] (setting [9]), the “serum level of IFNγ induced” value is “significant serum IFNγ level” and the “serum level of IL-4 induced” value is recorded as “only showed significant serum IFNγ level”. In addition, in data set [4] (setting [10]), the “serum level of IFNγ induced” value is given as “significant serum IFNγ level” and the “serum level of IL-4 induced” value was “only showed significant serum IFNγ level”. Further, in data set [5], the Th1/Th2 bias entry is listed as “Th1-biased”, the IFNγ secretion entry is reported as “effective in promoting the productions of IFNγ” and the IL-4 secretion result was “not IL-4”. Moreover, in data set [6], the “IL-4 level in BALF” value was “significant suppression”, the “IL-13 level in BALF” value was “only showed significant suppression on IL-4”, the “IL-4 protein level in lungs” value is “only showed significant suppression on IL-13” and the “IL-13 protein level in lungs” value was “significant suppression”.

As to `CCCCCCCCCCCCNC(=O)[C@H](CS[C@@H]1C(O)[C@@H](OCc2ccccc2)[C@H](O)C2COC(=O)N21)NC(=O)CCCCCCCCCCC` (some centres unmarked) [Compound 20], the “suppressive function on LPS-induced inflammation” value in data set [3] is recorded as “prominent inflammation-suppressing function”.

Take `CCCCCCCCCCCCCC(=O)N[C@@H](CS[C@@H]1C(O)[C@@H](O)[C@H](O)C2COC(=O)N21)C(=O)NCCCCCCCCCCCC` (some centres unmarked) [Compound 22]: in data set [5], the Th1/Th2 bias entry is given as “Th1-biased”, the IFNγ secretion entry is “effective in promoting the productions of IFNγ” and the IL-4 secretion result is recorded as “not IL-4”.

Regarding `CCCCCCCCCCCCNC(=O)[C@H](CO[C@@H]1C(O)[C@@H](O)[C@@H](O)C2COC(=O)N21)NC(=O)CCCCCCCCCCC` (some centres unmarked) [Compound 27], in data set [4] (setting [9]), the “serum level of IFNγ induced” value is recorded as “significant capability in inducing” and the “serum level of IL-4 induced” value is on record as “significant capability in inducing”. For the same compound, in data set [4] (setting [10]), the “serum level of IFNγ induced” value is on record as “significant detectable level” and the “serum level of IL-4 induced” value was “significant detectable level”. Also, in data set [8], the “suppression of IL-6” value is “significant suppression” and the “suppression of TNFα” value was “significant suppression”. Besides, in data set [5], the Th1/Th2 bias result was “Th1-biased”, the IFNγ secretion entry is recorded as “effective in promoting the productions of IFNγ” and the IL-4 secretion result was “not IL-4”. Besides, in data set [6], the “IL-4 level in BALF” value is listed as “only showed significant suppression on IL-13”, the “IL-13 level in BALF” value is “significant suppression”, the “IL-4 protein level in lungs” value is recorded as “only showed significant suppression on IL-13” and the “IL-13 protein level in lungs” value is “significant suppression”.

For `CCCCCCCCCCCCNC(=O)[C@H](CS[C@@H]1C(O)[C@@H](O)[C@@H](O)C2COC(=O)N21)NC(=O)CCCCCCCCCCC` (some centres unmarked) [Compound 29], in data set [4] (setting [9]), the “serum level of IFNγ induced” value is on record as “significant capability in inducing” and the “serum level of IL-4 induced” value is given as “significant capability in inducing”. Moreover, in data set [4] (setting [10]), the “serum level of IFNγ induced” value is given as “significant detectable level” and the “serum level of IL-4 induced” value is reported as “significant detectable level”. Further, in data set [5], the Th1/Th2 bias entry is given as “Th1-biased”, the IFNγ secretion result is “effective in promoting the productions of IFNγ” and the IL-4 secretion result is on record as “not IL-4”.
